Values quoted from earlier work, collected in patent US12329730B2, “Thermoresponsive hydrogel containing polymer microparticles for controlled drug delivery” (UNIVERSITY OF PITTSBURGH—OF THE COMMONWEALTH SYSTEM OF …, priority 2017, dated 2025).
In brackets after ≈: the same amount, converted by molar mass.

Test system: Streptococcus pneumoniae and Haemophilus influenzae
Conditions: Jacobs et al. 1999

O=C(O)c1cn(C2CC2)c2cc(N3CCNCC3)c(F)cc2c1=O [ciprofloxacin]
minimum inhibitory concentration (MIC): 2 µg/mL (≈ 6.04 µM)
